Laboratory results taken from publication PMC5522071, “Preclinical development of G1T38: A novel, potent and selective inhibitor of cyclin dependent kinases 4/6 for use as an oral antineoplastic in patients with CDK4/6 sensitive tumors” (Oncotarget, 2017).
Read-outs that look alike come from different tables or passages of the source.

Tests used:
[1] = Cellular potency compared with palbociclib; type: cell-based
A2058 cells = experiment: Cell cycle analysis (propidium iodide, flow cytometry); type: cell-based; conditions: CDK4/6 independent cells (A2058), 24 hours
Procedure: (§1) Next, we assessed the ability of G1T38 to elicit a G1 arrest in normal and tumorigenic CDK4/6-dependent (HS68, WM2664, respectively) and -independent tumorigenic (A2058) cell lines. […] In CDK4/6 independent cells, the compound had no effect on the percentage of S-phase cells (as shown by arrow in Supplementary Figure 1). A dose dependent increase of cells in the G1 phase of the cell cycle was observed when CDK4/6 dependent WM2664 cells were treated with G1T38 for 24 hours (Figure 1C). This arrest was maintained through 300 nM, more than 300x the biochemical IC50. […] The CDK4/6-independent cell line (A2058) was not affected by treatment with G1T38. […]
(§2) 100, 300 or 1000 nM) for 24 hours. Western blot method human breast cancer. […]
(§3) Cell cycle analysis Pharmaceuticals.
(§4) final concentration. […] The dose levels
(§5) cold methanol (Sigma) and stored at -20°C. […]
(§6) Albumin (BSA), Fraction V (Fisher Scientific).

WM2664 cells = experiment: as above; type: cell-based; conditions: for EC50: Homo sapiens, WM 266-4, read-out: EC50 of G1 arrest
Procedure: as §1, §2, §3, §4, §5, §6

CDK5/p25 = molecular target: T1, CDK5/p25 (Homo sapiens, UniProt Q00535); type: biochemical; conditions: 12-point dose response, singlicate, at Km for ATP
T1 construct: purchased Nanosyn, Inc. (contract assay)
T1 sequence (Q00535 whole entry): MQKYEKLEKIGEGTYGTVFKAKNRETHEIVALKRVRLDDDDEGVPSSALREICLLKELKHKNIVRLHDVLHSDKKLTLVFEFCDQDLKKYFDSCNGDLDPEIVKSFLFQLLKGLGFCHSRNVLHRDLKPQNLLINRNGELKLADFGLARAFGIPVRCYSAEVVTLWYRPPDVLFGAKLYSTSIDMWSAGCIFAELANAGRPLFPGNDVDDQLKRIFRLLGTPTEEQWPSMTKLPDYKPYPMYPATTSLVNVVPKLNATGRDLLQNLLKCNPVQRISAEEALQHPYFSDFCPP
T1 sequence (Q15078 99-307 partner limits assumed): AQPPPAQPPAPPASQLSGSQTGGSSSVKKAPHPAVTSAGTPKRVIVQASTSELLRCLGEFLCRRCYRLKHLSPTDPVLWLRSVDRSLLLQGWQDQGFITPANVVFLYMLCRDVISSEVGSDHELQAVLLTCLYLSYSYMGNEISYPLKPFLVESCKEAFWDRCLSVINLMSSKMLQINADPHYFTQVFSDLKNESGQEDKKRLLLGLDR

CDK9/Cyclin T = molecular target: T2, CDK9/Cyclin T (Homo sapiens, UniProt P50750); type: biochemical; conditions: 12-point dose response, singlicate, at Km for ATP
T2 construct: purchased Nanosyn, Inc. (contract assay)
T2 sequence (P50750 whole entry): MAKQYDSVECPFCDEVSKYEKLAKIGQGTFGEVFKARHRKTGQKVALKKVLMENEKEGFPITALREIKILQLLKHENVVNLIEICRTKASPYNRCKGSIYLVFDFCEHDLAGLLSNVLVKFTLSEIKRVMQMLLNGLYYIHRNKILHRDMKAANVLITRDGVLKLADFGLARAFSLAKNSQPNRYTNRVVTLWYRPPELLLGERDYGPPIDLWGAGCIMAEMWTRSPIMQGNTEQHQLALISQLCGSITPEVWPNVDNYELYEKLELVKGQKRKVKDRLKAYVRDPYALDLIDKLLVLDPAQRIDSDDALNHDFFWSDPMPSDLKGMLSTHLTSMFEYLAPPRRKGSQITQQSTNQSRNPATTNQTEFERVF
T2 sequence (O60563 whole entry partner): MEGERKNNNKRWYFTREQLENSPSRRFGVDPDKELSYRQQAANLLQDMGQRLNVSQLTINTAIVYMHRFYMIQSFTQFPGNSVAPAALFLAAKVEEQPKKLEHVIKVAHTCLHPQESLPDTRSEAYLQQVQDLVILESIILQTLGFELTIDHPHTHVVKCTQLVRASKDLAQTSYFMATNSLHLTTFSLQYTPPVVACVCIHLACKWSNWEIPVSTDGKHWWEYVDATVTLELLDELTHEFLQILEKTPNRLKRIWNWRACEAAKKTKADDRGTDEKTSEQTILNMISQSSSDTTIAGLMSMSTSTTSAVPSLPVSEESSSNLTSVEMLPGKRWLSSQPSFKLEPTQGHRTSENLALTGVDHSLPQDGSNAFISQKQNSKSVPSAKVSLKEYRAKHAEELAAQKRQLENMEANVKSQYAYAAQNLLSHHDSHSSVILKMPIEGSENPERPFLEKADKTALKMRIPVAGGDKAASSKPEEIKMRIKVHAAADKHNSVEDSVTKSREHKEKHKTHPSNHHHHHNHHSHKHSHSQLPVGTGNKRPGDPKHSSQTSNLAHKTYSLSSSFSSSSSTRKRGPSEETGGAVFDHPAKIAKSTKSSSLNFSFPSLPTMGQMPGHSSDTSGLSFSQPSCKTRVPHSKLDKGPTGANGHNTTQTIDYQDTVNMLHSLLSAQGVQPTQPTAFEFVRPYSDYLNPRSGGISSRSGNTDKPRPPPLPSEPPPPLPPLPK

H1975 xenograft = experiment: H1975 NSCLC xenograft model; type: in vivo, mice; conditions: for TGI: single agent, by 18 days of treatment
Source text: To evaluate the efficacy of G1T38 in combination with EGFR inhibitors, the H1975 xenograft model was utilized. H1975 is a human NSCLC that harbors the […] mutations rendering resistance to erlotinib treatment.
Afatinib is an irreversible second generation pan-ErbB inhibitor developed as a first-line treatment of patients with metastatic NSCLC whose tumors harbor EGFR mutations or deletions as well as in patients with metastatic disease that progressed after platinum-based chemotherapy.
Female NCI Ath/nu mice were implanted with H1975 NSC lung adenocarcinoma model. Once tumors reached an average size of 100- 150 mm^3, mice were randomized into treatment cohorts. Mice were orally administered daily afatinib (20 mg/kg, Genentech/OSI), erlotinib (70 mg/kg, LC Labs), or G1T38 (50 or 100 mg/kg), as single agents or in combination (G1T38 + erlotinib or G1T38 + afatinib) for the duration of the study. Tumors were measured twice weekly until mice reached tumor burden of 1500 mm^3.

## CC(C)N1CCN(c2ccc(Nc3ncc4cc5n(c4n3)C3(CCCCC3)CNC5=O)nc2)CC1.Cl.Cl [G1T38, 2′-((5-(4-isopropylpiperazin-1-yl)pyridin-2-yl)amino)-7′, 8′dihydro-6′Hspiro[cyclohexane1,9′ pyrazino[1′,2′:1,5]pyrrolo[2,3-d]pyrimidin]-6′-one di-hydrochloride]
[1]
  cellular EC50 lower than palbociclib: 2-3 fold
A2058 cells
  effect on the percentage of S-phase cells: no effect
WM2664 cells; HS68 and WM2664, at the concentrations tested
  cytotoxicity (sub2N fraction): not cytotoxic
WM2664 cells; CDK4/6 dependent cells, 24 hours (Figure 1C)
  EC50: ~20 nM
WM2664 cells; WM2664 cells, text of discussion
  EC50: 20 nM
CDK5/p25
  IC50: 1200 nM
CDK9/Cyclin T
  IC50: 28 nM
H1975 xenograft; 100 mg/kg G1T38 combined with 70 mg/kg erlotinib for 18 days
  TGI compared to vehicle, combination with erlotinib: 80%
H1975 xenograft; G1T38 50 or 100 mg/kg + afatinib 20 mg/kg, 18 days
  resistance during treatment, combination with afatinib: did not develop resistance
H1975 xenograft; G1T38 at any dose combined with 70 mg/kg erlotinib
  effect on erlotinib resistance: the resistance to the erlotinib was reversed
H1975 xenograft; 50 mg/kg daily oral
  TGI: 33.3%
H1975 xenograft; 100 mg/kg daily oral
  TGI: 60.7%
